According to patent US20060069132A1, “Azolecarboxamide herbicides” (priority 2004, published 2006):

What was measured:
lambsquarters = assay: Test B pre-/postemergence herbicide test; assay type: in vivo, Chenopodium album; conditions: for Lambsquarters plant response rating: postemergence
Procedure, shortened: (§1)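 Visual rating, 0 (no effect) to 100 (complete control), versus untreated controls after 13–15 d in greenhouse. Pre- and postemergence applications (postemergence plants 2–18 cm, 1–4 leaves); flooded paddy arm at 2-leaf stage. Compounds in non-phytotoxic solvent plus surfactant.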

large crabgrass = assay: Test B pre-/postemergence herbicide test; assay type: in vivo, Digitaria sanguinalis; conditions: for Crabgrass, Large plant response rating: postemergence
Procedure, shortened: as §1

cocklebur = assay: Test B pre-/postemergence herbicide test; assay type: in vivo, Xanthium strumarium; conditions: for Cocklebur plant response rating: postemergence
Procedure, shortened: (§2)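 Response was scored visually 13 to 15 days after treatment against untreated greenhouse controls, 0 meaning no effect and 100 complete control. Formulations (solvent mixture plus surfactant) went onto soil after planting, onto foliage of 1- to 4-leaf plants, and onto 2-leaf plants in a flooded paddy set including rice and barnyardgrass.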

velvetleaf = assay: Test B pre-/postemergence herbicide test; assay type: in vivo, Abutilon theophrasti; conditions: for Velvetleaf plant response rating: postemergence
Procedure, shortened: as §1

Surinam grass = assay: Test B pre-/postemergence herbicide test; assay type: in vivo, Urochloa decumbens; conditions: for Surinam Grass plant response rating: postemergence
Procedure, shortened: as §1

barnyardgrass [1] = assay: Test B flooded paddy test; assay type: in vivo, Echinochloa crus-galli; conditions: 1000 g ai/ha, scale 0 to 100 (0 no effect, 100 complete control)
Procedure, shortened: (§3)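 Visual control ratings, 0–100 versus untreated controls, taken after 13 to 15 days in the greenhouse. Blackgrass received a postemergence spray at the 1- to 4-leaf stage (2–18 cm); ducksalad, umbrella sedge and barnyardgrass were flooded-paddy treated at 2 leaves.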

pigweed = assay: Test B pre-/postemergence herbicide test; assay type: in vivo, Amaranthus retroflexus; conditions: for Pigweed plant response rating: postemergence
Procedure, shortened: as §1

barnyardgrass [2] = assay: Test B pre-/postemergence herbicide test; assay type: in vivo, Echinochloa crus-galli; conditions: for Barnyardgrass plant response rating: postemergence
Procedure, shortened: as §2

wild oat = assay: Test B postemergence herbicide test; assay type: in vivo, Avena fatua; conditions: postemergence
Procedure, shortened: (§4)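 Treated at 2-leaf (paddy) or 1–4-leaf, 2–18 cm (postemergence); greenhouse 13–15 d; visual score vs control, 0 none to 100 complete control; dash = not tested.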

wheat = assay: Test B postemergence herbicide test; assay type: in vivo, Triticum aestivum; design: key to Wheat plant response rating: 0 = no effect, 100 = complete control; conditions: postemergence
Procedure, shortened: as §4

ducksalad = assay: Test B flooded paddy test; assay type: in vivo, Heteranthera limosa; conditions: 1000 g ai/ha, scale 0 to 100 (0 no effect, 100 complete control)
Procedure, shortened: as §3

morningglory = assay: Test B pre-/postemergence herbicide test; assay type: in vivo, Ipomoea coccinea; conditions: for Morningglory plant response rating: postemergence
Procedure, shortened: as §2

rice = assay: Test B flooded paddy test; assay type: in vivo, Oryza sativa; conditions: 1000 g ai/ha, scale 0 to 100 (0 no effect, 100 complete control)
Procedure, shortened: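 Read-out: visual comparison with controls, scored 0 to 100, where 100 means complete control and 0 no effect. Formulated chemicals were applied postemergence to plants 2–18 cm tall (1- to 4-leaf), or to flooded-paddy plants at the 2-leaf stage, then held 13 to 15 days under glass.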

giant foxtail = assay: Test B pre-/postemergence herbicide test; assay type: in vivo, Setaria faberi; conditions: for Foxtail, Giant plant response rating: postemergence
Procedure, shortened: as §1

[3] = system: small flower umbrella sedge; assay: Test B flooded paddy test; assay type: in vivo, Cyperus difformis; conditions: 1000 g ai/ha, scale 0 to 100 (0 no effect, 100 complete control)
Procedure, shortened: as §3

[4] = 125 g ai/ha, 0 is no effect, 100 is complete control, preemergence
[5] = 125 g ai/ha, visual rating, scale 0 (no effect) to 100 (complete control)
[6] = 500 g ai/ha, visual rating, 0 = no effect, 100 = complete control, preemergence
[7] = 500 g ai/ha, scale 0 to 100, 0 is no effect, 100 is complete control

For `CCC1=NN(C(C)(C)C)CC1C(=O)Nc1cc(C(=O)N2CCCC2)ccc1F` (racemic) [Compound 341], the “Plant response rating (0 to 100 scale), Lambsquarters” value (lambsquarters; [4]) was 100, the “Lambsquarters plant response rating” value (lambsquarters; [5]) was 30 and the “Plant response rating, Lambsquarters” value (lambsquarters; [6]) was 100. The “Lambsquarters plant response rating” value (lambsquarters; [7]) was 100, the “Plant response rating (0 to 100 scale), Crabgrass, Large” value (large crabgrass; [4]) was 90 and the “Crabgrass, Large plant response rating” value (large crabgrass; [5]) was 10. The “Plant response rating, Crabgrass, Large” value (large crabgrass; [6]) was 100, the “Crabgrass, Large plant response rating” value (large crabgrass; [7]) was 20 and the “Plant response rating (0 to 100 scale), Cocklebur” value (cocklebur; [4]) was 40. The “Cocklebur plant response rating” value (cocklebur; [5]) was 10, the “Plant response rating, Cocklebur” value (cocklebur; [6]) was 100 and the “Cocklebur plant response rating” value (cocklebur; [7]) was 20. For the same compound, the “Plant response rating (0 to 100 scale), Velvetleaf” value (velvetleaf; [4]) was 60, the “Velvetleaf plant response rating” value (velvetleaf; [5]) was 20 and the “Velvetleaf plant response rating” value (velvetleaf; [7]) was 30. The “Plant response rating (0 to 100 scale), Surinam Grass” value (Surinam grass; [4]) was 100, the “Surinam Grass plant response rating” value (Surinam grass; [5]) was 10 and the “Plant response rating, Surinam Grass” value (Surinam grass; [6]) was 100. The “Surinam Grass plant response rating” value (Surinam grass; [7]) was 20, the “Barnyardgrass plant response rating” value (barnyardgrass [1]) was 90 and the “Plant response rating (0 to 100 scale), Pigweed” value (pigweed; [4]) was 90. The “Pigweed plant response rating” value (pigweed; [5]) was 30, the “Plant response rating, Pigweed” value (pigweed; [6]) was 100 and the “Pigweed plant response rating” value (pigweed; [7]) was 60. For the same compound, the “Plant response rating (0 to 100 scale), Barnyardgrass” value (barnyardgrass [2]; [4]) was 80, the “Barnyardgrass plant response rating” value (barnyardgrass [2]; [5]) was 10 and the “Plant response rating, Barnyardgrass” value (barnyardgrass [2]; [6]) was 100. For the same compound, the “Barnyardgrass plant response rating” value (barnyardgrass [2]; [7]) was 20, the “Oat, Wild plant response rating” value (wild oat; [5]) was 0 and the “Oat, Wild plant response rating” value (wild oat; [7]) was 30. For the same compound, the “Wheat plant response rating” value (wheat; [5]) was 10, the “Wheat plant response rating” value (wheat; [7]) was 20 and the “Ducksalad plant response rating” value (ducksalad) was 90. The “Morningglory plant response rating” value (morningglory; [5]) was 20, the “Plant response rating, Morningglory” value (morningglory; [6]) was 30 and the “Morningglory plant response rating” value (morningglory; [7]) was 40. For the same compound, the “Rice plant response rating” value (rice) was 70, the “Plant response rating (0 to 100 scale), Foxtail, Giant” value (giant foxtail; [4]) was 50 and the “Foxtail, Giant plant response rating” value (giant foxtail; [5]) was 30. The “Plant response rating, Foxtail, Giant” value (giant foxtail; [6]) was 90, the “Foxtail, Giant plant response rating” value (giant foxtail; [7]) was 30 and the “Sedge, Umbrella plant response rating” value [3] was 80.
